Where two headings read alike, the source gives them in different places.
Target: T1, angiotensin converting enzyme (ACE) (Oryctolagus cuniculus, UniProt P12822)
T1 construct: a slurry of 10 g of lyophilized rabbit lung powder (Pel-Freez); tissue Pel-Freez; host or cells: rabbit lung (lyophilized powder, buffer extract)
T1 sequence (P12822 34-1310): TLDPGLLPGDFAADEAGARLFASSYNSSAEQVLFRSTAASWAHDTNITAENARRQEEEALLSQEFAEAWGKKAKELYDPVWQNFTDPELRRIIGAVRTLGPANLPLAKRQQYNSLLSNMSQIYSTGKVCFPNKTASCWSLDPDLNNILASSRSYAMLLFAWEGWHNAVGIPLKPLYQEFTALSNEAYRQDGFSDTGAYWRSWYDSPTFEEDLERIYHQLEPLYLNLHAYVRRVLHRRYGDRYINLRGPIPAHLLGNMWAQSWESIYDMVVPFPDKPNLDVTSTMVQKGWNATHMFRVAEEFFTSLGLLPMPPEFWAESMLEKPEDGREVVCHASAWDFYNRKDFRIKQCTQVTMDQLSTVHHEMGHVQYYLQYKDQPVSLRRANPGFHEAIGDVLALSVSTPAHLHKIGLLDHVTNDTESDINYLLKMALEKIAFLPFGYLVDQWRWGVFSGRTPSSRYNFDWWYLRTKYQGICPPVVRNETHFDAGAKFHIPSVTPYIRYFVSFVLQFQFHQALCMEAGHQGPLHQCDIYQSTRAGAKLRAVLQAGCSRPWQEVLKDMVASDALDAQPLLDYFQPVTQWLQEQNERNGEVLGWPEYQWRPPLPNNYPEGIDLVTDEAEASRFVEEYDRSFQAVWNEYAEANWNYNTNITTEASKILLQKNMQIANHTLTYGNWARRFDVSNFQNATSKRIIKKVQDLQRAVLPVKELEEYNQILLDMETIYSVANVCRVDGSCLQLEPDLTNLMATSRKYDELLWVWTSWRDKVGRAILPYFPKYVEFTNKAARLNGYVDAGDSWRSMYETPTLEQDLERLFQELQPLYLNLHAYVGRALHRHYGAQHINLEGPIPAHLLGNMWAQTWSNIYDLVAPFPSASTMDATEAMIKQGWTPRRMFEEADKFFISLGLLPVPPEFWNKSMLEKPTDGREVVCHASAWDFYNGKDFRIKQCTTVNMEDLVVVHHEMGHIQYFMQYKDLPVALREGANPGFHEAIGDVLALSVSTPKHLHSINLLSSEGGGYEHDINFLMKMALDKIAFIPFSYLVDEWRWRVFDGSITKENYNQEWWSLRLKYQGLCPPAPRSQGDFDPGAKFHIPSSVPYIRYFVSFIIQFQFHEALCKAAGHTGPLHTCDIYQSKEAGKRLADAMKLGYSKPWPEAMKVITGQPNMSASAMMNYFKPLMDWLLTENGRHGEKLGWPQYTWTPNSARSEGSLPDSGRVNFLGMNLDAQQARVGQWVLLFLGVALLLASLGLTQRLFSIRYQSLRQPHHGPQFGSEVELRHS
Test: IC50 Assay (Cushman and Cheung; hippuryl-L-histidyl-L-leucine hydrolysis by rabbit lung powder extract)
Type: biochemical
Description: According to the assay of Cushman and Cheung Biochem. Pharmacol 20, 1637, (1971), a slurry of 10 g of lyophilized rabbit lung powder (Pel-Freez) and 100 mL of 50 mM potassium phosphate buffer, pH 8.3, was blended for three one minute intervals followed by centrifugation for 40 minutes at 17,500 rpm. The clear supernatant was assayed for protein by the modified Lowry test and the volume of the rabbit lung powder extract (RLPE) was adjusted with buffer, 100 mM phosphate buffer prepared to yield a pH of 8.3 in the presence of 300 mM NaCl, to give 10-20 mU of angiotensin converting enzyme (ACE) activity in a 100 μL volume. The assay was carried out in 13×100 mm disposable culture tubes, with each assay tube containing 100 μL RLPE, 50 μL of a 12.5 mM solution of hippuryl-L-histidyl-L-leucine (HHL) (Sigma) in a buffer and 100 μL of inhibitor solution made up in buffer. The enzyme is added last to initiate the reaction and the tubes are incubated at 37° C. for one hour. The assay is terminated by the addition of 250 μL of 1M HCl to each tube; the HCl is added before the enzyme in the zero-time control assays. To each tube is added 1.5 mL of ethyl acetate followed by vortex mixing for 15 seconds. After the tubes have been centrifuged at 2,500 rpm for 5 minutes, 1 mL of the ethyl acetate layer is transferred to a clean 12×75 mm disposable culture tube. The ethyl acetate was evaporated by heating at 90° C. in a water bath for 30 minutes. Addition of 1 mL of water to each tube followed by vortex mixing for 15 seconds redissolves the hippuric acid. […]

Row | SMILES | A228 ± SD (-log[MIBA] 7.246) | A228 ± SD (-log[MIBA] 8.246) | A228 ± SD (-log[MIBA] 9.246) | A228 ± SD (-log[MIBA] 10.246) | A228 ± SD (-log[MIBA] 11.246) | IC50 (rabbit lung ACE, HHL substrate, pH 8.3, 37° C., one hour, read-out: IC50) | IC50 | A228 ± SD (-log[Lisin] 6.206) | A228 ± SD (-log[Lisin] 7.206) | A228 ± SD (-log[Lisin] 8.206) | A228 ± SD (-log[Lisin] 9.206) | A228 ± SD (-log[Lisin] 10.206)
1 | O=C(NCCCC[C@H](N[C@@H](CCc1ccccc1)C(=O)O)C(=O)N1CCC[C@H]1C(=O)O)c1cccc(I)c1 [lisinopril MIBA] | 0.025 ± 0.007 | 0.224 ± 0.016 | 1.196 ± 0.026 | 2.174 ± 0.047 | 2.360 ± 0.060 | 0.6 nM | – | – | – | – | – | –
2 | NCCCC[C@H](N[C@@H](CCc1ccccc1)C(=O)O)C(=O)N1CCC[C@H]1C(=O)O [lisinopril, reference compound] | – | – | – | – | – | – | 5.4 nM | 0.029 ± 0.007 | 0.175 ± 0.007 | 0.946 ± 0.012 | 2.275 ± 0.031 | 2.371 ± 0.060

— US5601801A, “Radiolabelled angiotensin converting enzyme inhibitors” (Merck Frosst Canada, Inc., priority 1994, dated 1997)
